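Cells were grown in 96-well plates and exposed to each compound for 48 hours at five concentrations; endpoints were interpolated linearly between bracketing concentrations, or set to the highest concentration if not reached. GI50: concentration for 50% inhibition of growth. The concentration for full growth arrest is given as TGI.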
How the values were obtained:
Experiment in all cases: NCI anticancer screen, dose series, 48 h
COLO 205 colon = test system: COLO 205 colon
SW-620 colon = test system: SW-620 colon
OVCAR-5 ovarian = test system: OVCAR-5 ovarian
NCI-H23 lung = test system: NCI-H23 lung
SK-OV-3 ovarian = test system: SK-OV-3 ovarian
EKVX NSCLC = test system: EKVX NSCLC
UACC-257 melanoma = test system: UACC-257 melanoma
NCI-H460 lung = test system: NCI-H460 lung
OVCAR-3 ovarian = test system: OVCAR-3 ovarian
CCRF-CEM leukemia = test system: CCRF-CEM leukemia
MDA-MB-231 breast = test system: MDA-MB-231 breast
SK-MEL-28 melanoma = test system: SK-MEL-28 melanoma
PC-3 prostate = test system: PC-3 prostate
SN12C renal = test system: SN12C renal
MCF7 breast = test system: MCF7 breast
A549 NSCLC = test system: A549 NSCLC
M14 melanoma = test system: M14 melanoma
U251 CNS = test system: U251 CNS
OVCAR-8 ovarian = test system: OVCAR-8 ovarian
HCT-116 colon = test system: HCT-116 colon
SF-295 CNS = test system: SF-295 CNS
HCC-2998 colon = test system: HCC-2998 colon
IGROV1 ovarian = test system: IGROV1 ovarian
HCT-15 colon = test system: HCT-15 colon
HL-60(TB) leukemia = test system: HL-60(TB) leukemia
SR leukemia = test system: SR leukemia
MDA-MB-435 = test system: MDA-MB-435
KM12 colon = test system: KM12 colon
NCI-H522 lung = test system: NCI-H522 lung
SNB-19 CNS = test system: SNB-19 CNS
UACC-62 melanoma = test system: UACC-62 melanoma
SK-MEL-5 melanoma = test system: SK-MEL-5 melanoma
UO-31 renal = test system: UO-31 renal
BT-549 breast = test system: BT-549 breast
A498 renal = test system: A498 renal
786-0 renal = test system: 786-0 renal
NCI-H226 lung = test system: NCI-H226 lung
HT29 colon = test system: HT29 colon
RXF 393 renal = test system: RXF 393 renal
TK-10 renal = test system: TK-10 renal
SNB-75 CNS = test system: SNB-75 CNS
RPMI-8226 leukemia = test system: RPMI-8226 leukemia
MOLT-4 leukemia = test system: MOLT-4 leukemia
ACHN renal = test system: ACHN renal
DU-145 prostate = test system: DU-145 prostate
NCI/ADR-RES ovarian = test system: NCI/ADR-RES ovarian
SK-MEL-2 melanoma = test system: SK-MEL-2 melanoma
MALME-3M melanoma = test system: MALME-3M melanoma
LOX IMVI melanoma = test system: LOX IMVI melanoma
HOP-62 NSCLC = test system: HOP-62 NSCLC
HS 578T breast = test system: HS 578T breast
OVCAR-4 ovarian = test system: OVCAR-4 ovarian
K-562 leukemia = test system: K-562 leukemia
CAKI-1 renal = test system: CAKI-1 renal
SF-539 CNS = test system: SF-539 CNS
SF-268 CNS = test system: SF-268 CNS

## O=c1cc(-c2ccccc2)[nH]c2c1CCCC2
COLO 205 colon
  GI50: 1.99 µM
  TGI: 6.42 µM
SW-620 colon
  GI50: 1.64 µM
  TGI: > 100 µM
OVCAR-5 ovarian
  GI50: 14.8 µM
  TGI: > 100 µM
NCI-H23 lung
  GI50: 3.39 µM
  TGI: > 100 µM
SK-OV-3 ovarian
  GI50: 5.11 µM
  TGI: > 100 µM
EKVX NSCLC
  GI50: 5.6 µM
  TGI: > 100 µM
UACC-257 melanoma
  GI50: 67 µM
  TGI: > 100 µM
NCI-H460 lung
  GI50: 3.01 µM
  TGI: > 100 µM
OVCAR-3 ovarian
  GI50: 1.81 µM
  TGI: 5.02 µM
CCRF-CEM leukemia
  GI50: 3.4 µM
  TGI: > 100 µM
MDA-MB-231 breast
  GI50: 6.67 µM
  TGI: > 100 µM
SK-MEL-28 melanoma
  GI50: > 100 µM
  TGI: > 100 µM
PC-3 prostate
  GI50: 3.18 µM
  TGI: > 100 µM
SN12C renal
  GI50: 13.4 µM
  TGI: > 100 µM
MCF7 breast
  GI50: 1.14 µM
  TGI: > 100 µM
A549 NSCLC
  GI50: 4.55 µM
  TGI: > 100 µM
M14 melanoma
  GI50: 1.5 µM
  TGI: 5.68 µM
U251 CNS
  GI50: 4.54 µM
  TGI: > 100 µM
OVCAR-8 ovarian
  GI50: 4.58 µM
  TGI: > 100 µM
HCT-116 colon
  GI50: 3.34 µM
  TGI: > 100 µM
SF-295 CNS
  GI50: 1.43 µM
  TGI: 7.61 µM
HCC-2998 colon
  GI50: 2.5 µM
  TGI: 31.9 µM
IGROV1 ovarian
  GI50: 3.59 µM
  TGI: > 100 µM
HCT-15 colon
  GI50: 2.01 µM
  TGI: > 100 µM
HL-60(TB) leukemia
  GI50: 1.62 µM
  TGI: > 100 µM
SR leukemia
  GI50: 0.835 µM
  TGI: > 100 µM
MDA-MB-435
  GI50: 0.29 µM
  TGI: 0.992 µM
KM12 colon
  GI50: 0.723 µM
  TGI: > 100 µM
NCI-H522 lung
  GI50: 2 µM
  TGI: 6.71 µM
SNB-19 CNS
  GI50: 8.9 µM
  TGI: > 100 µM
UACC-62 melanoma
  GI50: 5.91 µM
  TGI: > 100 µM
SK-MEL-5 melanoma
  GI50: 0.883 µM
  TGI: 45.4 µM
UO-31 renal
  GI50: 5.49 µM
  TGI: > 100 µM
BT-549 breast
  GI50: 21.5 µM
  TGI: > 100 µM
A498 renal
  GI50: 1.44 µM
  TGI: 7.83 µM
786-0 renal
  GI50: 14.7 µM
  TGI: > 100 µM
NCI-H226 lung
  GI50: 3.08 µM
  TGI: 65.6 µM
HT29 colon
  GI50: 2 µM
  TGI: > 100 µM
RXF 393 renal
  GI50: 1.8 µM
  TGI: 5.53 µM
TK-10 renal
  GI50: 70.6 µM
  TGI: > 100 µM
SNB-75 CNS
  GI50: 1.8 µM
  TGI: > 100 µM
RPMI-8226 leukemia
  GI50: 4.67 µM
  TGI: > 100 µM
MOLT-4 leukemia
  GI50: 6.16 µM
  TGI: > 100 µM
ACHN renal
  GI50: 11.6 µM
  TGI: > 100 µM
DU-145 prostate
  GI50: 2.47 µM
  TGI: 8.35 µM
NCI/ADR-RES ovarian
  GI50: 1.69 µM
  TGI: 5.73 µM
SK-MEL-2 melanoma
  GI50: 4.19 µM
  TGI: > 100 µM
MALME-3M melanoma
  GI50: 3.48 µM
  TGI: > 100 µM
LOX IMVI melanoma
  GI50: 5.88 µM
  TGI: > 100 µM
HOP-62 NSCLC
  GI50: 4.51 µM
  TGI: > 100 µM
HS 578T breast
  GI50: 2.01 µM
  TGI: 8.56 µM
OVCAR-4 ovarian
  GI50: 9.08 µM
  TGI: > 100 µM
K-562 leukemia
  GI50: 0.85 µM
  TGI: > 100 µM
CAKI-1 renal
  GI50: 0.944 µM
  TGI: > 100 µM
SF-539 CNS
  GI50: 2.92 µM
  TGI: > 100 µM
SF-268 CNS
  GI50: 7.72 µM
  TGI: > 100 µM

— PubChem BioAssay (NCI)
